Experimental data taken from US20260183399A1, “METHOD FOR MODULATING KINASE ACTIVITY AND USE THEREOF” (CENTER FOR EXCELLENCE IN MOLECULAR CELL SCIENCE, CHINESE …, priority 2022, published 2026).

Experiments:
[1] = biological target: T1, recombinant human PGK1 protein (Homo sapiens, UniProt P00558); test: In vitro enzyme activity of PGK1 (ATP detection kit, IC50 inhibition curve); type: biochemical; conditions: S33 0, 1, 3, 5, 7, 10, 30 μM; 37° C. for 25 minutes; FIG. 1F
T1 construct: made in house; host or cells: Escherichia coli
T1 sequence (P00558 1-417): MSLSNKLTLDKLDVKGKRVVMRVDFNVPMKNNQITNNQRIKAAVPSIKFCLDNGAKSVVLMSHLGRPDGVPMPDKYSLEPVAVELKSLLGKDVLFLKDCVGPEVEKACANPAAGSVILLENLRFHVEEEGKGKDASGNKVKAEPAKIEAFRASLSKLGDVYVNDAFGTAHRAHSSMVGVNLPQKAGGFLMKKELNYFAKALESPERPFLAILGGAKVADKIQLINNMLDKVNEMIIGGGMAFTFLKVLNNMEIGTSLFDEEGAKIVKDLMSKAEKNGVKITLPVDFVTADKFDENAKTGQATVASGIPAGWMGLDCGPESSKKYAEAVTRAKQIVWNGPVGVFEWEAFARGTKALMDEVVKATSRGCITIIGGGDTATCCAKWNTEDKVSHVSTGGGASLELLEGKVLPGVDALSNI
Procedure: A substrate buffer mixture with a final concentration of 10 mM KH2PO4, pH7.0, 2 mM GAP, 0.6 mM β-NAD, 0.4 mM ADP, 10 mM MgSO4, 200 mM Glycine, and 0.01 μg/μL GAPDH was prepared. The purified hPGK1 recombinant protein was diluted to 0.2 ng/μL. Inhibitors were added to the protein and a concentration gradient was set up. Each reaction was added with 100 μl of substrate and a mixture of 100 μl hPGK1 protein and inhibitor, and reacted at 37° C. for 25 minutes. After centrifuged at 10000 rpm for 10 minutes at 4° C., 100 μl of supernatant was taken. In the ATP detection kit (Beyotime S0026), the ATP detection solution was diluted with ATP detection diluent at a ratio of 1:10. In a 96 well blank plate, each well was added with 100 μl of diluted detection solution, and let it stand at room temperature for 5 minutes, added with 100 μl of supernatant from enzyme activity reaction, and reacted for 5 seconds, and a microplate reader was used to read the fluorescence value. The relative enzyme activity was calculated based on fluorescence values and IC50 values were calculated using GraphPad nonlinear regression fitting.
The compound (S33, patent number: ZL201610826187. X) reported in the previous patent is a PGK1 inhibitor (FIG. 1E), and we determined the inhibitory activity of compound S33 on PGK1. […]

[2] = test system: AMPK pathway (AMPK α-catalytic subunit and ACC1 phosphorylation) in HeLa and 293T cells; test: S33 treatment of HeLa and 293T cells, Western blot of AMPK pathway; type: cell-based; conditions: 2, 5 and 10 μM, 2 hours, dose-dependent, FIG. 1G
Procedure: In order to investigate the regulatory effect of PGK1 inhibition on AMPK pathway, different concentrations of S33 (2, 5, and 10 μM, respectively) were added to the culture supernatants of HeLa and 293T cells, and treated for 2 hours. Cell lysate was collected and the changes in specific proteins and in AMPK α-catalytic subunit phosphorylation sites, as well as the phosphorylation of the classical substrate ACC1, downstream of the AMPK pathway, were detected by western blot.

LKB1 kinase = biological target: T2, LKB1 kinase (Homo sapiens, UniProt Q15831); test: In vitro kinase experiment with LKB1 kinase (excluding STRAD1 and MO25) and His-AMPK α1; type: biochemical; conditions: metabolite 100 μM; FIG. 1J
T2 construct: the general method says FLAG-LKB1 instead) (N); made in house; host or cells: HEK293T (293T) cells, transfected; immunoprecipitation
T2 sequence (Q15831 1-433): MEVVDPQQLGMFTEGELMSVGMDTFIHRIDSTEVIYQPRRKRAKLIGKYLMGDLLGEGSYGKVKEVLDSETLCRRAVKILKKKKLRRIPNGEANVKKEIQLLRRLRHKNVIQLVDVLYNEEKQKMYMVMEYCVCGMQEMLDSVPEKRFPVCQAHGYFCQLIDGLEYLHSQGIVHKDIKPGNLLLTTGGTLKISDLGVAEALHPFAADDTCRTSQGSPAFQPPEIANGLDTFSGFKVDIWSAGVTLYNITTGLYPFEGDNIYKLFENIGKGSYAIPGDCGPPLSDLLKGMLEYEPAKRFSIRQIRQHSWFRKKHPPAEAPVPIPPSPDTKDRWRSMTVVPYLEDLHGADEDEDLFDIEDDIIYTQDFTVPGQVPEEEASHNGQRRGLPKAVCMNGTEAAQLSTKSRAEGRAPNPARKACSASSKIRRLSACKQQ
Procedure: (§1) The final reaction system for kinase experiment was: 50 mM Tris HCl, 10 mM MgCl2, 1 mM DTT, and 100 μM ATP. HEK293T cells were co-transfected with equal amounts of GST-LKB1, FLAG-STRAD, MYC-MO25 plasmids or solely transfected with FLAG-LKB1 plasmid. The cells were collected, processed for immunoprecipitation using GST beads or FLAG beads, washed three times with cell lysis buffer containing NP-40, and washed twice with kinase reaction buffer. The His-AMPK protein was induced and purified using E. coli BL21 competent cells. The kinase was incubated with metabolites at 100 μM at room temperature for 15 minutes before reaction, then added with reaction buffer and His-AMPK protein, and reacted at […] for 30 minutes. The phosphorylation of AMPK protein was detected by Western blot.
The final reaction system for the kinase experiment was 50 mM Tris-HCl, 10 mM MgCl2, 1 mM DTT, and 100 μM ATP. […] The kinase complex was pre-incubated with metabolites at room temperature for 15 minutes before reaction. Then the reaction buffer and His-AMPK protein were added, and reacted at 37° C. for 30 minutes. The phosphorylation of AMPK protein was detected by Western blot.

[3] = test system: AMPK α-catalytic subunit phosphorylation in 293T cells; test: Metabolite treatment of glucose-starved 293T cells, Western blot of AMPK phosphorylation; type: cell-based; conditions: glucose starvation 2 hours
Procedure: Cells were subjected to glucose starvation treatment using glucose free culture medium for 2 hours. The corresponding metabolites were added to the culture medium according to the instructions shown in FIG. 1C and FIG. 1D, so that their concentration in the culture medium reached the labeled level, if there was no labeling, the concentration of metabolites in the culture medium was […]. After treatment, cells were collected to prepare lysis buffer, and the changes in specific proteins and phosphorylation of specific sites were detected by Western blot.
When the expression and function of these metabolic enzymes are inhibited, their corresponding products are decreased. Therefore, we speculate that there may be a mechanism by which AMPK is regulated by metabolite molecules in the glycolytic metabolic pathway, and the activation level of AMPK is related to metabolite content. To verify this hypothesis, we added different doses of exogenous 3-phosphoglycerate (3-PG) to 293T cells subjected to glucose starvation treatment (activation of AMPK signaling pathway). […] After treatment, cells were collected to prepare lysate, and the changes in specific proteins and the changes in phosphorylation sites of AMPK α-catalytic subunit were detected by Western blot.

[4] = biological target: T3, LKB1-STRAD1-MO25 kinase complex (Homo sapiens, UniProt Q15831); test: In vitro kinase experiment with LKB1 kinase complex and His-AMPK α1; type: biochemical
T3 construct: GST (N); made in house; host or cells: HEK293T (293T) cells, co-transfected
T3 sequence (Q15831 1-433): T2 sequence (Q15831 1-433)
T3 sequence (Q7RTN6 1-431 partner): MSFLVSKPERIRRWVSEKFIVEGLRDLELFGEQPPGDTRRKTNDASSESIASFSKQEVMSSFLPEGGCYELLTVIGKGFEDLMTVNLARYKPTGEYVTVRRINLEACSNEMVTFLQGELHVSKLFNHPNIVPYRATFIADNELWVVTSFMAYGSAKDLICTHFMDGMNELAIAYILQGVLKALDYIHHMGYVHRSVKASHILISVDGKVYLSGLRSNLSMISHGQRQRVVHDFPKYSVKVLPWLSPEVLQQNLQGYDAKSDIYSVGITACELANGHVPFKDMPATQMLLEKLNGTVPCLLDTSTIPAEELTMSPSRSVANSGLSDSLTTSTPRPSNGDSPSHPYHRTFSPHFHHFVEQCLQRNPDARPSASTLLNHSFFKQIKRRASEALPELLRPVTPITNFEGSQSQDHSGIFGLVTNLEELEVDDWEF
T3 sequence (Q9Y376 1-341 partner): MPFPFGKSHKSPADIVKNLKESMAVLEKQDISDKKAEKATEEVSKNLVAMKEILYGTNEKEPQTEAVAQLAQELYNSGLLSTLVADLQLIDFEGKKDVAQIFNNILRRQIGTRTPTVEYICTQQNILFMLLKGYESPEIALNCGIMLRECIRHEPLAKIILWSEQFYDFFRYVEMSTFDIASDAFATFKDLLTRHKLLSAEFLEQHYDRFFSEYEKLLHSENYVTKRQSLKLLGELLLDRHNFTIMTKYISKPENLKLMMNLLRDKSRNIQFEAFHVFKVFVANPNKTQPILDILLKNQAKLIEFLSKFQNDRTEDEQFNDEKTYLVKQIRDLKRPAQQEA
Procedure: as §1
Given that LKB1 is a key upstream kinase that phosphorylates and activates the AMPK a subunit, we speculate that the aforementioned metabolites may affect the phosphorylation activation of AMPK a subunit by LKB1 kinase or LKB1 kinase complex. To verify this hypothesis, GST-LKB1, FLAG-STRAD1, and MYC-MO25 were co-transfected into 293T cells (2 μg of each expression plasmid, and transfected into about 7×10^6 cells). After 48 hours, cells were collected and lysed, and then the LKB1-STRAD1-MO25 kinase complex was subjected to glutathione-agarose bead affinity purification, and co-incubated with the recombinant His-AMPK α1 subunit expressed in E. coli for in vitro kinase experiments. The final reaction system for kinase experiment was: 50 mM Tris HCl, 10 mM MgCl2, 1 mM DTT, 100 μM ATP. At the same time, metabolites such as 3-phosphoglyceraldehyde (GAP) or 3-phosphoglycerate (3-PG) were added to 100 μM according to the diagram (as shown in FIG. 1H), or to a concentration of 50-400 μM as shown in the diagram (as shown in FIG. 1I). The kinase complex was pre-incubated with metabolites at room temperature for 15 minutes before reaction. Then the reaction buffer and His-AMPK protein were added, and reacted at 37° C. for 30 minutes. The phosphorylation of AMPK protein was detected by Western blot.

SMILES: COc1cc2nc(N3CCC(N(C)C(=O)C4CCCO4)CC3)nc(N3CCOCC3)c2cc1Cl (stereo not drawn) [S33]
- inhibitory activity of compound on PGK1 [1]: effective inhibitor of PGK1
- ACC1 phosphorylation [2]: upregulate
- AMPK α-catalytic subunit phosphorylation [2]: upregulate

SMILES: O=C(COP(=O)(O)O)[C@@H](O)[C@H](O)[C@H](O)COP(=O)(O)O [1,6-fructose diphosphate]
- phosphorylation of AMPK α1 by LKB1 kinase (LKB1 kinase): had no such effect

SMILES: O=C(O)[C@@H](CO)OP(=O)(O)O [2-phosphoglycerate]
- phosphorylation of AMPK α1 by LKB1 kinase (LKB1 kinase): significantly inhibit
- AMPK α-catalytic subunit phosphorylation signaling ([3]; metabolite 200 μM, FIG. 1D): inhibitory effects

SMILES: O=CC(O)COP(=O)(O)O (stereo not drawn) [3-phosphoglyceraldehyde]
- phosphorylation of AMPK α1 by LKB1 kinase (LKB1 kinase): had no such effect
- phosphorylation of AMPK α1 by LKB1 kinase complex ([4]; metabolite 100 μM, FIG. 1H): had no such effect

SMILES: O=C(O)[C@H](O)COP(=O)(O)O [3-phosphoglycerate]
- phosphorylation of AMPK α1 by LKB1 kinase (LKB1 kinase): significantly inhibit
- intracellular AMPK α-catalytic subunit phosphorylation signaling ([3]; metabolite 100-800 μM, FIG. 1C): significantly inhibited intracellular AMPK α-catalytic subunit phosphorylation signaling in a dose-dependent manner
- phosphorylation of AMPK α1 by LKB1 kinase complex ([4]; metabolite 100 μM, FIG. 1H): strongly inhibited
- phosphorylation of AMPK α1 by LKB1 kinase complex ([4]; metabolite 50-400 μM, FIG. 1I): inhibits the phosphorylation of AMPK α1 by LKB1 kinase complex in a dose-dependent manner
